The values below are quoted from earlier work in patent US6916480B2, “Wiper containing a controlled-release anti-microbial agent” (Kimberly-Clark Worldwide, Inc., priority 1999, dated 2005).

One data set relates to Salmonella spp. Particulars: according to most literature.
The next data set concerns E. Coli. The conditions noted are these: according to most literature.

With `[Ag]` [silver], the “silver content that can effectively kill microbes” value in the data set with Salmonella spp. and with E. Coli was 20 parts per billion (ppb) throughout.
